Patent US11827628B2, “Compositions and methods for inhibition of the JAK pathway” (Rigel Pharmaceuticals, Inc., priority 2005, dated 2023)
Read-outs that look alike come from different tables or passages of the source.

Assays:
[1] = system: up-regulation of ICAM-1 (CD54) by IFNγ in U937 human monocytic cells; assay: U937 IFNγ ICAM1 FACS Assay; assay type: cell-based; conditions: ICAM-1 expression by FACS, read-out: IC50, Example 44
In short: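 U937 cells in 10% FCS RPMI were preincubated 30 min at 37 °C with an 8-point, 3-fold compound dilution series in duplicate, then stimulated with IFNγ for 18–24 h. Surface ICAM-1 was stained with APC anti-ICAM-1 and read by flow cytometry as geometric mean on live-gated cells. EC50 was derived.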

[2] = system: IL-4 stimulated expression of CD23 in human Ramos B cells (JAK-1 and JAK-3); assay: Assay for Ramos B-Cell Line Stimulated with IL-4 (CD23 upregulation, FACS); assay type: cell-based; conditions: read-out: IC50, Example 41
In short: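 Log-phase Ramos cells, 1 h compound pre-incubation at 37 °C; IL-4 50 units/mL final, 20-24 h; CD23-PE stain, FACS; IC50.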

[3] = Homo sapiens, U-937, U937 cells stimulated with IFNγ
[4] = Homo sapiens, Ramos, Ramos B-cell line stimulated with IL-4, CD23 expression by FACS
[5] = U937 cells stimulated with IFNγ
[6] = Ramos B cells stimulated with IL-4, CD23 expression by FACS

For `COc1ccc(Nc2ncc(F)c(Nc3ccc(Cc4ccncc4)cc3)n2)cc1S(N)(=O)=O` [III-66, N2-(3-Aminosulfonyl-4-methoxyphenyl)-5-fluoro-N4-[4-(4-pyridinylmethyl)phenyl]-2,4-pyrimidinediamine], the IC50 [1, 3] was 967 nM and the IC50 [2, 4] was 142 nM.
Work on `Cc1cnc(Nc2cccc(S(N)(=O)=O)c2)nc1Nc1ccc(OCC(=O)N(C)C)c(F)c1` [Compound I-138, N2-(3-Aminosulfonylphenyl)-N4-(4-dimethylaminocarbonylmethoxy-3-fluorophenyl)-5-methyl-2,4-pyrimidinediamine] yielded an IC50 [1, 3] of 9470 nM and an IC50 [2, 4] of 461 nM.
`Cc1cc2ccc(CNc3nc(Nc4cccc(S(N)(=O)=O)c4)ncc3F)cc2[nH]1` [Compound X-3] was tested, and the IC50 [1, 3] was 1380 nM and the IC50 ([2]; Homo sapiens, Ramos, Ramos B cells stimulated with IL-4, CD23 expression by FACS) was 348 nM.
With `Cc1ccc(Nc2ncc(C)c(Nc3ccc(OCC(=O)N(C)C)c(Cl)c3)n2)cc1S(N)(=O)=O` [Compound I-136, N2-(3-Aminosulfonyl-4-methylphenyl)-N4-(3-chloro-4-dimethylaminocarbonylmethoxyphenyl)-5-methyl-2,4-pyrimidinediamine] the IC50 [1, 3] was 1640 nM and the IC50 [2, 4] was 132 nM.
`NS(=O)(=O)c1cccc(Nc2ncc(F)c(NCCc3ccc(-n4ccnc4)cc3)n2)c1` [III-87, N2-(3-Aminosulfonylphenyl)-5-fluoro-N4-[4-(1-imidazolyl)phenethyl]-2,4-pyrimidinediamine] showed an IC50 [1, 3] of 2950 nM and an IC50 [2, 4] of 141 nM.
Work on `Cc1cnc(Nc2cccc(S(N)(=O)=O)c2)nc1Nc1ccc(OCC(N)=O)cc1` [Compound I-109, N4-(4-Aminocarbonylmethoxyphenyl)-N2-(3-aminosulfonylphenyl)-5-methyl-2,4-pyrimidinediamine] yielded an IC50 [1, 3] of 9940 nM and an IC50 [2, 4] of 305 nM.
In the case of `NS(=O)(=O)c1cccc(Nc2ncc(F)c(Nc3ccc(CN4CCOCC4)cc3)n2)c1` [III-103, N2-(3-Aminosulfonylphenyl)-5-fluoro-N4-(4-N-morpholinomethylenephenyl)-2,4-pyrimidinediamine], the IC50 [1, 5] is reported as 2430 nM and the IC50 [2, 6] is reported as 230 nM.
`Cc1ccc(Nc2ncc(F)c(Nc3ccc(CN4CCS(=O)(=O)CC4)cc3)n2)cc1S(N)(=O)=O` [III-111, N2-(3-Aminosulfonyl-4-methylphenyl)-5-fluoro-N4-{4-[(1,1-dioxothiomorpholin-4-yl-)methyl]phenyl}-2,4-pyrimidinediamine] showed an IC50 [1, 5] of 5340 nM and an IC50 [2, 6] of 321 nM.
With `Cc1ccc(Nc2ncc(F)c(Nc3cccc(OC4CCN(C)CC4)c3)n2)cc1S(N)(=O)=O` [II-2, N2-(3-Aminosulfonyl-4-methylphenyl)-5-fluoro-N4-{3-[(1-methylpiperidin-4-yl)oxy]phenyl}-2,4-pyrimidinediamine] the IC50 [1, 3] was 4590 nM and the IC50 [2, 4] was 244 nM.
`Cc1ccc(Nc2nc(Nc3cccc(S(N)(=O)=O)c3)ncc2F)cc1OCCN1CCOCC1` [Compound I-203, N2-(3-Aminosulfonylphenyl)-5-fluoro-N4-[4-methyl-3-(2-morpholinoethyloxy)phenyl]-2,4-pyrimidinediamine] was tested, and the IC50 [1, 3] was 3130 nM and the IC50 [2, 4] was 265 nM.
Compound `NS(=O)(=O)c1ccc(Nc2ncc(F)c(Nc3ccc(Cc4ccncc4)cc3)n2)cc1` [III-71, N2-(4-Aminosulfonylphenyl)-5-fluoro-N4-[4-(4-pyridinylmethyl)phenyl]-2,4-pyrimidinediamine] has an IC50 [1, 3] of 1700 nM and an IC50 [2, 4] of 97.9 nM.
`NC(=O)OCCc1ccc(Nc2nc(Nc3cccc(S(N)(=O)=O)c3)ncc2F)cc1` [III-54, N4-{4-[2-(Aminocarbonyloxy)ethyl]phenyl}-N2-(3-aminosulfonylphenyl)-5-fluoro-2,4-pyrimidinediamine] gave an IC50 [1, 3] of 1590 nM and an IC50 [2, 4] of 135 nM.
`Cc1cc(COc2ccc(Nc3nc(Nc4cccc(S(N)(=O)=O)c4)ncc3F)cc2)no1` [Compound I-230, N2-(3-Aminosulfonylphenyl)-5-fluoro-N4-[4-(5-methylisoxazol-3-yl)methyleneoxyphenyl]-2,4-pyrimidinediamine] gave an IC50 [1, 3] of 465 nM and an IC50 [2, 4] of 84.3 nM.
Compound `NC(=O)COc1ccc(Nc2nc(Nc3ccc(S(N)(=O)=O)cc3)ncc2F)cc1Cl` [Compound I-97, N4-(4-Aminocarbonylmethoxy-3-chlorophenyl)-N2-(4-aminosulfonylphenyl)-5-fluoro-2,4-pyrimidinediamine] has an IC50 [1, 3] of 27400 nM and an IC50 [2, 4] of 212 nM.
In the case of `Cc1cnc(Nc2ccc(S(N)(=O)=O)cc2)nc1Nc1ccc(OCC(=O)N(C)C)c(Cl)c1` [Compound I-134, N2-(4-Aminosulfonylphenyl)-N4-(3-chloro-4-dimethylaminocarbonylmethoxyphenyl)-5-methyl-2,4-pyrimidinediamine], the IC50 [1, 3] is reported as 3240 nM and the IC50 [2, 4] is reported as 178 nM.
For `C=CCNC(=O)COc1ccc(Nc2nc(Nc3ccc(C)c(S(N)(=O)=O)c3)ncc2F)cc1` [Compound I-159, N4-(4-Allylaminocarbonylmethoxyphenyl)-N2-(3-aminosulfonyl-4-methylphenyl)-5-fluoro-2,4-pyrimidinediamine], the IC50 [1, 3] was 1630 nM and the IC50 [2, 4] was 338 nM.
`Cc1ccc(Nc2nc(Nc3ccc(C)c(S(N)(=O)=O)c3)ncc2F)cc1OCCN1CCOCC1` [Compound I-204, N2-(3-Aminosulfonyl-4-methylphenyl)-5-fluoro-N4-[4-methyl-3-(2-morpholinoethyloxy)phenyl]2,4-pyrimidinediamine] showed an IC50 [1, 3] of 3930 nM and an IC50 [2, 4] of 256 nM.
`CNC(=O)COc1ccc(Nc2nc(Nc3ccc(S(N)(=O)=O)cc3)ncc2C)cc1Cl` [Compound I-149, N2-(4-Aminosulfonylphenyl)-N4-(3-chloro-4-methylaminocarbonylmethoxyphenyl)-5-methyl-2,4-pyrimidinediamine] gave an IC50 [1, 3] of 14700 nM and an IC50 [2, 4] of 161 nM.
`CN(C)C(=O)COc1ccc(Nc2nc(Nc3ccc(S(N)(=O)=O)cc3)ncc2F)cc1Cl` [Compound I-131, N2-(4-Aminosulfonylphenyl)-N4-(3-chloro-4-dimethylaminocarbonylmethoxyphenyl)-5-fluoro-2,4-pyrimidinediamine] showed an IC50 [1, 3] of 2990 nM and an IC50 [2, 4] of 262 nM.
Work on `Cc1ccc(Nc2ncc(F)c(Nc3ccc(CCC#N)c(F)c3)n2)cc1S(N)(=O)=O` [III-17, N2-(3-Aminosulfonyl-4-methylphenyl)-5-fluoro-N4-[4-(2-cyanoethyl)-3-fluorophenyl]-2,4-pyrimidinediamine] yielded an IC50 [1, 3] of 782 nM and an IC50 [2, 4] of 56.7 nM.
For `Cc1ccc(Nc2ncc(F)c(Nc3ccc(OCc4cccnc4)cc3)n2)cc1S(N)(=O)=O` [Compound I-178, N2-(3-Aminosulfonyl-4-methylphenyl)-5-fluoro-N4-[4-(3-pyridylmethoxy)phenyl]-2,4-pyrimidinediamine], the IC50 [1, 3] was 118 nM and the IC50 [2, 4] was 23.5 nM.
For `CN(C)C(=O)OCCc1ccc(Nc2nc(Nc3cccc(S(N)(=O)=O)c3)ncc2F)cc1` [III-57, N2-(3-Aminosulfonylphenyl)-N4-{4-[2-(dimethylaminocarbonyloxy)ethyl]phenyl}-5-fluoro-2,4-pyrimidinediamine], the IC50 [1, 3] was 838 nM and the IC50 [2, 4] was 53.6 nM.
`Cc1cnc(Nc2ccc(S(N)(=O)=O)cc2)nc1Nc1ccc(OCC(=O)N(C)C)c(F)c1` [Compound I-137, N2-(4-Aminosulfonylphenyl)-N4-(4-dimethylaminocarbonylmethoxy-3-fluorophenyl)-5-methyl-2,4-pyrimidinediamine] showed an IC50 [1, 3] of 29600 nM and an IC50 [2, 4] of 387 nM.
With `COc1ccc(Nc2ncc(F)c(Nc3ccc(CN4CCSCC4)cc3)n2)cc1S(N)(=O)=O` [III-109, N2-(3-Aminosulfonyl-4-methyoxyphenyl)-5-fluoro-N4-(4-thiomorpholinomethylenephenyl)-2,4-pyrimidinediamine] the IC50 [1, 5] was 531 nM and the IC50 [2, 6] was 143 nM.
For `COc1cc(Nc2nc(Nc3ccc(S(N)(=O)=O)cc3)ncc2F)ccc1OCC#N` [Compound I-45, N2-(4-Aminosulfonylphenyl)-N4-(4-cyanomethoxy-3-methoxyphenyl)-5-fluoro-2,4-pyrimidinediamine], the IC50 [1, 3] was 3640 nM and the IC50 [2, 4] was 104 nM.
Compound `COc1cc(Nc2nc(Nc3ccc(S(N)(=O)=O)cc3)ncc2F)cc(OCC#N)c1OC` [Compound I-1, N2-(4-Aminosulphonylphenyl)-N4-(3-cyanomethoxy-4,5-dimethoxyphenyl)-5-fluoro-2,4-pyrimidinediamine] has an IC50 [1, 3] of 35300 nM and an IC50 [2, 4] of 366 nM.
In the case of `Cc1ccc(Nc2ncc(F)c(Nc3ccc(Cc4ccncc4)cc3)n2)cc1S(N)(=O)=O` [III-74, N2-(3-Aminosulfonyl-4-methylphenyl)-5-fluoro-N4-[4-(4-pyridinylmethyl)phenyl]-2,4-pyrimidinediamine], the IC50 [1, 3] is reported as 935 nM and the IC50 [2, 4] is reported as 95.2 nM.
Compound `COc1ccc(Nc2ncc(F)c(Nc3ccc(OCC#N)cc3)n2)cc1S(N)(=O)=O` [Compound I-56, N2-(3-Aminosulfonyl-4-methoxyphenyl)-N4-(4-cyanomethoxyphenyl)-5-fluoro-2,4-pyrimidinediamine] has an IC50 [1, 3] of 424 nM and an IC50 [2, 4] of 104 nM.
Compound `Cc1cc(Nc2nc(Nc3ccc(C)c(S(N)(=O)=O)c3)ncc2F)ccc1CCC#N` [III-19, N2-(3-Aminosulfonyl-4-methylphenyl)-N4-[4-(2-cyanoethyl)-3-methylphenyl]-5-fluoro-2,4-pyrimidinediamine] has an IC50 [1, 3] of 55.6 nM and an IC50 [2, 4] of 72.3 nM.
Compound `Cc1ccc(Nc2ncc(F)c(Nc3ccc(OCC(N)=O)c(F)c3)n2)cc1S(N)(=O)=O` [Compound I-102, N4-(4-Aminocarbonylmethoxy-3-fluorophenyl)-N2-(3-aminosulfonyl-4-methylphenyl)-5-fluoro-2,4-pyrimidinediamine] has an IC50 [1, 3] of 15600 nM and an IC50 [2, 4] of 219 nM.
